Assay results from patent publication US20250353819A1, “ARYL HYDANTOIN COMPOUNDS AND METHODS OF USE” (priority 2022, published 2025).
Where two headings read alike, the source gives them in different places.

Columns and labels:
LAPC4 cells = experiment: Androgen-dependent cell-based assay (DHT, LAPC4)
Description: Androgen-Dependent Cell-based Assay. As described by Jones and Diamond (2008), LAPC4 cells were cultured in phenol red free RPMI 1640 media supplemented with antibiotics and 10% FBS. […] […] Mean-effect plots (log[compound] vs. log[fractional effect]) were generated to determine the IC50 values for each test compound or combinations of test compounds at constant ratios.

S. mansoni = experiment: Antischistosomal screen in S. mansoni-infected mice; assay type: in vivo, Schistosoma mansoni; conditions: Schistosoma mansoni, single oral dose, mouse model
Excerpt: Antischistosomal Screen. […] As described by Lombardo et al. (2019), cercariae of S. mansoni were obtained from infected Biomphalaria glabrata. By way of example, NMRI mice were infected subcutaneously with approximately 100 S. mansoni cercariae. […] Untreated mice (n=8) served as controls. At 21 d post-treatment, animals were killed by the CO2 method and dissected. Worms were removed by picking, then sexed and counted.

[1] = In vitro metabolic stability, mouse liver microsomes; assay type: in vitro ADME; conditions: mouse liver microsomes; read-out: m CLint
Description: In Vitro Metabolic Stability. As described by Charman et al. (2020), metabolic stability assays were performed by incubating test compounds in liver microsomes at 37° C. and 0.4 mg/mL protein concentration. The metabolic reaction was initiated by the addition of an NADPH-regenerating system and quenched at various time points over a 60 min incubation period by the addition of acetonitrile containing diazepam as internal standard. Control samples (containing no NADPH) were included (and quenched at 2, 30 and 60 min) to monitor for potential degradation in the absence of cofactor.

[2] = Mouse exposure / pharmacokinetic studies; assay type: in vivo, mice; conditions: for half-life / clearance: iv, 1 mg/kg
[3] = Pharmacokinetics in male Sprague Dawley rats; assay type: in vivo, rat; conditions: rats, mean (n = 3); for half-life: read-out: Apparent t1/2 (converted)
Description: IV and oral formulations were prepared using the same method. On the day of dosing the solid compound was dissolved in DMSO prior to addition of a saline solution (0.9% w/v). The samples were then mixed using vortexing producing colourless solutions. The IV formulation was filtered through a 0.22 μm syringe filter prior to dosing and the oral formulation was dosed without filtration.
Samples of arterial blood were collected up to 168 h post-dose. Urine samples were not collected as animals were housed in bedded cages. Arterial blood was collected directly into borosilicate vials (at 4° C.) containing heparin as anticoagulant. Once collected, blood samples were centrifuged, supernatant plasma was removed and stored frozen (−80° C.) until analysis by LC-MS. A summary of the bioanalytical method and assay validation details is included in Tables 14 and 15.
Plasma concentration versus time data were analysed using non-compartmental methods (PKSolver Version 2.0). Standard calculations for each pharmacokinetic parameter are listed below.

LogD7.4 (shake flask) = conditions: pH 7.4
[4] = Whole blood-to-plasma ratio, mouse
CYP 2C9 = CYP 2C9 (Homo sapiens (Human), UniProt P11712); experiment: CYP inhibition in human liver microsomes, 2C9
Sequence of CYP 2C9 (P11712 whole entry): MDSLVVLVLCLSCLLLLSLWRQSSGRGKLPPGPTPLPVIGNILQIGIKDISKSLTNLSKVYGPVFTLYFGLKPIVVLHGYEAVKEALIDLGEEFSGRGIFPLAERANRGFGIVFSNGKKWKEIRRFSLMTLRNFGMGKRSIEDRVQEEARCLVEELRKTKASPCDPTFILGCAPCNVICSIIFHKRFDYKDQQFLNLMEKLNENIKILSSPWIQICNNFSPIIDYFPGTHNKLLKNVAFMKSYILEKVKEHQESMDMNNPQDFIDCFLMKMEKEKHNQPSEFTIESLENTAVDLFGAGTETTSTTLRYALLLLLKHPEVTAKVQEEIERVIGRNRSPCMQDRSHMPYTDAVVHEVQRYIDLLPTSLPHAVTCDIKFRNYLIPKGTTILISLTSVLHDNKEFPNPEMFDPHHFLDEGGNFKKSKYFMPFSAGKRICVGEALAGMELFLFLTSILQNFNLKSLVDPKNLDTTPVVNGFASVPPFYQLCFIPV

CYP 2D6 = CYP 2D6 (Homo sapiens (Human), UniProt P10635); experiment: CYP inhibition in human liver microsomes, 2D6
Sequence of CYP 2D6 (P10635 whole entry): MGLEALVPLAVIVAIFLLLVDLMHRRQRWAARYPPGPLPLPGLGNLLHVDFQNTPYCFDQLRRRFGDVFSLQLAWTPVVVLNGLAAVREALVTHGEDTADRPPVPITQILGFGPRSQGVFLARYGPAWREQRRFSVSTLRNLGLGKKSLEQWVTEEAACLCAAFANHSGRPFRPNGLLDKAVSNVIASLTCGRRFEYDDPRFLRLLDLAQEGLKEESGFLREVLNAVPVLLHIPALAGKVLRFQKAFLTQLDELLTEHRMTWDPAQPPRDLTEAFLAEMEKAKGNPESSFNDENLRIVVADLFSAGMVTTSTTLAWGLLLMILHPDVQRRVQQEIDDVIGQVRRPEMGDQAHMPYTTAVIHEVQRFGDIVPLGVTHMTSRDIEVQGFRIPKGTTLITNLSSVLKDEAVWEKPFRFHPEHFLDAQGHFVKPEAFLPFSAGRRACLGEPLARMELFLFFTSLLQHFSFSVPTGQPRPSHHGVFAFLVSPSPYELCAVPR

CYP 3A4 = CYP 3A4 (Homo sapiens (Human), UniProt P08684); experiment: CYP inhibition in human liver microsomes, 3A4
Sequence of CYP 3A4 (P08684 whole entry): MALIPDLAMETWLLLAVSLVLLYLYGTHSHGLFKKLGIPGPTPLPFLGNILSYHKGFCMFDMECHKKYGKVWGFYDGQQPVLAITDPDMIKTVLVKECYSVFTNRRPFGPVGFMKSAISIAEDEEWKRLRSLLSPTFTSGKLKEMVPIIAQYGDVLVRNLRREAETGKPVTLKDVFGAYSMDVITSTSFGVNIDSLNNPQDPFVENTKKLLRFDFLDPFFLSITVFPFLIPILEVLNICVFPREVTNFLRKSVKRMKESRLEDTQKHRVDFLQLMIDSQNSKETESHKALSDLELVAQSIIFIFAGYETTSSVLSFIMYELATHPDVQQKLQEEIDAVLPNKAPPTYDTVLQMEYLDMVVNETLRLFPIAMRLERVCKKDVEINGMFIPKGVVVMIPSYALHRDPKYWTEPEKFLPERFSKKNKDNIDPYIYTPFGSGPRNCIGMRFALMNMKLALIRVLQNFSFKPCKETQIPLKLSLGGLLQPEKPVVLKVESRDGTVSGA

[5] = mice, oral, mean dose 6.73 mg/kg
[6] = mice, oral, mean dose 13.5 mg/kg
[7] = mice, oral, mean dose 26.3 mg/kg
[8] = mice, oral, mean dose 55.6 mg/kg
[9] = mice, oral, mean dose 99.7 mg/kg

Compound: [2H]C([2H])([2H])C1(C([2H])([2H])[2H])NC(=O)N(c2ccc(F)c(C(C)(F)F)c2)C1=O [Compound IE, 3-(3-(1,1-difluoroethyl)-4-fluorophenyl)-5,5-bis(methyl-d3)imidazolidine-2,4-dione]
- IC50 (LAPC4 cells; Homo sapiens, DHT-induced, androgen-dependent LAPC4 prostate cancer cell line, read-out: LAPC4 IC50): > 100 µM
- inhibition of DHT-induced cell proliferation (LAPC4 cells; concentrations up to 100 μM): did not inhibit
- ED50 (S. mansoni; adult stage, read-out: S. mansoni ED50, adult): 7.1 mg/kg
- ED50 (S. mansoni; juvenile stage, read-out: S. mansoni ED50, juvenile): 16 mg/kg
- microsomal CLint [1]: < 7 µL/min/mg
- half-life ([2]; male, Swiss outbred, mouse, in vivo, IV 1 mg/kg, mice, read-out: apparent half-life (converted)): 1800 min
- clearance ([2]; male, Swiss outbred, mouse, in vivo, IV 1 mg/kg, mice, read-out: blood clearance): 0.59 mL/min/kg
- half-life ([2]; male, Swiss outbred, mouse, in vivo, mice, IV, mean dose 1.0 mg/kg, read-out: Apparent t1/2 (converted)): 2280 min
- clearance ([2]; male, Swiss outbred, mouse, in vivo, mice, IV, mean dose 1.0 mg/kg, read-out: Plasma CL): 0.491 mL/min/kg
- bioavailability ([2]; male, Swiss outbred, mouse, in vivo, po, mice, all doses 6.25 to 100 mg/kg, read-out: apparent oral bioavailability): ≥ 80%
- AUC(0-t) ([2]; male, Swiss outbred, mouse, in vivo, 100 mg/kg PO in mice, read-out: AUC0-last): 1800 µg·h/mL
- Cmax ([2]; male, Swiss outbred, mouse, in vivo, 100 mg/kg PO in mice, read-out: Cmax): 41000 ng/mL
- Vd ([2]; male, Swiss outbred, mouse, in vivo, IV 1 mg/kg, mice, read-out: volume of distribution): 1.59 L/kg
- AUC(0-t) ([2]; male, Swiss outbred, mouse, in vivo, mice, IV, mean dose 1.0 mg/kg, read-out: Plasma AUC0-48 h): 28.2 µg·h/mL
- AUC(0-inf) ([2]; male, Swiss outbred, mouse, in vivo, mice, IV, mean dose 1.0 mg/kg, read-out: Plasma AUC0-inf): 33900 ng·h/mL
- Tmax ([2]; male, Swiss outbred, mouse, in vivo, mice, oral, mean dose 6.73 mg/kg): 3 h
- AUC(0-t) ([2]; male, Swiss outbred, mouse, in vivo, mice, oral, mean dose 6.73 mg/kg, read-out: Plasma AUC0-48 h): 145 µg·h/mL
- Cmax ([2]; male, Swiss outbred, mouse, in vivo, mice, oral, mean dose 6.73 mg/kg, read-out: Plasma Cmax): 3760 ng/mL
- Tmax ([2]; male, Swiss outbred, mouse, in vivo, mice, oral, mean dose 13.5 mg/kg): 7 h
- AUC(0-t) ([2]; male, Swiss outbred, mouse, in vivo, mice, oral, mean dose 13.5 mg/kg, read-out: Plasma AUC0-48 h): 320 µg·h/mL
- Cmax ([2]; male, Swiss outbred, mouse, in vivo, mice, oral, mean dose 13.5 mg/kg, read-out: Plasma Cmax): 8590 ng/mL
- Tmax ([2]; male, Swiss outbred, mouse, in vivo, mice, oral, mean dose 26.3 mg/kg): 7 h
- AUC(0-t) ([2]; male, Swiss outbred, mouse, in vivo, mice, oral, mean dose 26.3 mg/kg, read-out: Plasma AUC0-48 h): 607 µg·h/mL
- Cmax ([2]; male, Swiss outbred, mouse, in vivo, mice, oral, mean dose 26.3 mg/kg, read-out: Plasma Cmax): 14400 ng/mL
- Tmax ([2]; male, Swiss outbred, mouse, in vivo, mice, oral, mean dose 55.6 mg/kg): 3 h
- AUC(0-t) ([2]; male, Swiss outbred, mouse, in vivo, mice, oral, mean dose 55.6 mg/kg, read-out: Plasma AUC0-48 h): 1130 µg·h/mL
- Cmax ([2]; male, Swiss outbred, mouse, in vivo, mice, oral, mean dose 55.6 mg/kg, read-out: Plasma Cmax): 28200 ng/mL
- Tmax ([2]; male, Swiss outbred, mouse, in vivo, mice, oral, mean dose 99.7 mg/kg): 7 h
- AUC(0-t) ([2]; male, Swiss outbred, mouse, in vivo, mice, oral, mean dose 99.7 mg/kg, read-out: Plasma AUC0-48 h): 1800 µg·h/mL
- Cmax ([2]; male, Swiss outbred, mouse, in vivo, mice, oral, mean dose 99.7 mg/kg, read-out: Plasma Cmax): 40500 ng/mL
- PlasmaVSS ([2]; mice, IV, mean dose 1.0 mg/kg): 1.6 L/kg
- Apparent BA [2, 5]: 76%
- Plasma AUC0-48 h/Dose [2, 5]: 21.5 (μg*h/mL)/(mg/kg)
- Plasma Cmax/Dose [2, 5]: 0.559 (μg/mL)/(mg/kg)
- Apparent BA [2, 6]: 84%
- Plasma AUC0-48 h/Dose [2, 6]: 23.8 (μg*h/mL)/(mg/kg)
- Plasma Cmax/Dose [2, 6]: 0.638 (μg/mL)/(mg/kg)
- Apparent BA [2, 7]: 82%
- Plasma AUC0-48 h/Dose [2, 7]: 23.1 (μg*h/mL)/(mg/kg)
- Plasma Cmax/Dose [2, 7]: 0.547 (μg/mL)/(mg/kg)
- Apparent BA [2, 8]: 72%
- Plasma AUC0-48 h/Dose [2, 8]: 20.4 (μg*h/mL)/(mg/kg)
- Plasma Cmax/Dose [2, 8]: 0.507 (μg/mL)/(mg/kg)
- Apparent BA [2, 9]: 64%
- Plasma AUC0-48 h/Dose [2, 9]: 18.0 (μg*h/mL)/(mg/kg)
- Plasma Cmax/Dose [2, 9]: 0.407 (μg/mL)/(mg/kg)
- AUC ([3]; male, Sprague Dawley, rat, in vivo, iv, 0.9 mg/kg, IV 0.9 mg/kg, read-out: Plasma AUCIV): 31700 ng·h/mL
- clearance ([3]; male, Sprague Dawley, rat, in vivo, iv, 0.9 mg/kg, IV 0.9 mg/kg, read-out: Plasma CL): 0.476 mL/min/kg
- Cmax ([3]; male, Sprague Dawley, rat, in vivo, po, 0.9 mg/kg, PO 0.9 mg/kg, read-out: Plasma Cmax): 440 ng/mL
- Tmax ([3]; male, Sprague Dawley, rat, in vivo, po, 0.9 mg/kg, PO 0.9 mg/kg, read-out: Tmax): 11 h
- half-life ([3]; male, Sprague Dawley, rat, in vivo, IV 0.9 mg/kg): 1920 ± 120 min
- half-life ([3]; male, Sprague Dawley, rat, in vivo, PO 0.9 mg/kg): 2340 min
- Apparent t1/2 ([3]; IV 0.9 mg/kg): 32 h
- PlasmaVSS ([3]; IV 0.9 mg/kg): 1.69 L/kg
- BA ([3]; PO 0.9 mg/kg): 113%
- Plasma AUCoral ([3]; PO 0.9 mg/kg): 36.0 H*ug/mL
- LogD7.4 (shake flask) (LogD7.4 (shake flask)): 1.9
- logD (LogD7.4 (shake flask)): 1.9
- B:P [4]: 1.0
- CYP inhibition (CYP 2C9; CYP 2C9, concentrations up to 20 μM, human liver microsomes): did not inhibit
- IC50 (CYP 2C9; read-out: CYP inhibition IC50, 2C9): > 20 µM
- CYP inhibition (CYP 2D6; CYP 2D6, concentrations up to 20 μM, human liver microsomes): did not inhibit
- IC50 (CYP 2D6; read-out: CYP inhibition IC50, 2D6): > 20 µM
- CYP inhibition (CYP 3A4; CYP 3A4, concentrations up to 20 μM, human liver microsomes): did not inhibit
- IC50 (CYP 3A4; read-out: CYP inhibition IC50, 3A4* (tes/mid)): > 20 µM
